Values after ≈ are worked out from the molar mass of the structure shown. Read-outs that look alike come from different tables or passages of the source.
Legend:
Mtb H37Rv (ATCC27294) = experiment: In vitro anti-TB activity (MIC) against Mtb H37Rv; format: cell-based, Mycobacterium tuberculosis; settings: for MIC: Mycobacterium tuberculosis, read-out: Anti-TB (MIC)
[1] = DPPH radical scavenging assay; settings: absorbance at 517 nm after 30 min
Experimental: In TB, oxidative stress may result in tissue inflammation due to anti-TB drugs. The synthesised compounds have shown promising anti-TB activity and have the potential to develop as lead compounds. Therefore, it is necessary to evaluate the synthesised compounds for their antioxidant activity. Antioxidant activities of the synthesised compounds were measured using 2,2-diphenyl-1-picrylhydrazyl (DPPH) radical scavenging assay. DPPH radical scavenging activity is the most commonly used method for screening the antioxidant activities of the various natural as well as synthetic antioxidants. A lower IC50 value indicates greater antioxidant activity. […]
(§1) completion of starting material and formation of polar spot. The reaction mixture was concentrated to dry to give 7a-7d, used directly in next step.
(§2) 1.2. In-vitro Mtb MABA assay
(§3) Briefly, the inoculum was prepared from fresh LJ medium re -suspended in 7H9-S medium (7H9 broth, 0.1% casitone, 0.5% glycerol, supplemented oleic acid, albumin, dextrose, and catalase [OADC]), adjuste d to an OD590 1.0, and diluted 1:20; 100 µl was used as inoculum. Each drug stock solution was thawed and diluted in 7H9 -S at four-fold the final highest concentration tested. Serial two-fold dilutions of each drug were prepared directly in a sterile 96 -well microtiter plate using 100 µl 7H9 -S. A growth control containing no antibiotic and a sterile control were also prepared on each plate. Sterile water was added to all perimeter wells to avoid evaporation during the incubation. The plate was covered, seal ed in plastic bags and incubated at 37 °C in normal atmosphere. After 7 days incubation, 30 µl of Alamar blue solution was added to each well, and the plate was re -incubated overnight. A change in colour from blue (oxidised state) to pink (reduced) indicat ed the growth of bacteria, and the MIC was defined as the lowest concentration of drug that prevented this change in colour. […]
(§4) the concentration of […]. After 72 h of exposure, viability was assessed on the basis of cellular conversion of MTT into a formazan product using the Promega Cell Titer 96 non - radioactive cell proliferation assay.
(§5) 1.4. DPPH radical scavenging activity
(§6) The hydrogen atom or electron donation ability of some compounds were measured from the bleaching of the purple colored methanol solution of […] (DPPH). The spectrophotometric assay uses the stable radical DPPH as a reagent. 1 mL of various concentrations of the test compounds (5, 10, 25, 50 and 100 μg/mL) in methanol was added to 4 mL of 0.004% (w/v) methanol solution of DPPH. The reaction mixture was incubated at 37 °C.
(§7) The scavenging activity on DPPH was determined by measuring the absorbance at 517 nm after 30 min. All tests were performed in triplicate and the mean values were entered. The percent of inhibition (I %) of free radical production from DPPH was calculated by the following equation % of scavenging = [(A control – A sample)/ […]]. Where, A control is the […]

[2] = In vitro cytotoxicity, MTT assay; format: cell-based, human; settings: human, A549 cells, read-out: Human cell lines A549 IC50 approximation
Experimental: (§8) The safety profile of the active hybrids was also accessed by testing in vitro cytotoxicity against human cell-line A549 cells at 50 μg/mL concentration by (4,5-dimethylthiazol-2-yl)-2,5-diphenyltetrazolium bromide (MTT) assay. […]
as §1, §2, §3, §4, §5, §6, §7

[3] = tested on: human cell-line A549 cells; experiment: In vitro cytotoxicity, MTT assay; format: cell-based; settings: 50 μg/mL, 72 h exposure
Experimental: as §8, §1, §2, §3, §4, §5, §6, §7

[4] = Mtb H37Rv, most active compounds tested in triplicates

Structure (SMILES)	Anti-TB (MIC) (Mtb H37Rv (ATCC27294); [4])	MIC (Mtb H37Rv (ATCC27294); [4])	DPPH IC50 [1]	MIC (Mtb H37Rv (ATCC27294))	IC50 at 72 h [2]	% Cell inhibition at 50 μg/mL [3]
NNC(=O)c1ccncc1 [Isoniazid, reference compound]	0.05 µg/mL	0.05 ± 0.02 µg/mL (≈ 0.365 µM)				
CC[C@@H](CO)NCCN[C@@H](CC)CO [Ethambutol, reference compound]	1.56 µg/mL	1.56 ± 0.76 µg/mL (≈ 7.64 µM)				
O=C(c1cc2cc(N3CCN(S(=O)(=O)c4ccc([N+](=O)[O-])cc4[N+](=O)[O-])CC3)ccc2o1)N1CCCCC1 [Compound 4o, (5-(4-((2,4-dinitrophenyl)sulphonyl)piperazin-1-yl)benzofuran-2-yl) (piperidin-1-yl)methanone]	1.56 µg/mL		19.27 µg/mL	1.56 ± 0.36 µg/mL (≈ 2.87 µM)	> 50 µg/mL	31.58%
O=C(Nc1ccccc1)c1cc2cc(N3CCN(S(=O)(=O)c4ccc([N+](=O)[O-])cc4[N+](=O)[O-])CC3)ccc2o1 [Compound 4n, 5-(4-((2,4-dinitrophenyl)sulphonyl)piperazin-1-yl)-N-phenylbenzofuran-2-carboxamide]			40.64 µg/mL	3.12 ± 1.1 µg/mL (≈ 5.66 µM)	> 50 µg/mL	27.98%
O=C1O[C@H]([C@@H](O)CO)C(O)=C1O [Ascorbic acid, reference compound]			12.7 µg/mL			
CCOC(=O)c1cc2cc(N3CCN(C(=O)C(NS(=O)(=O)c4ccc([N+](=O)[O-])cc4[N+](=O)[O-])c4ccccc4)CC3)ccc2o1 (stereo not drawn) [Compound 4k, ethyl 5-(4-(2-(2,4-dinitrophenylsulfonamido)-2-phenylacetyl)piperazin-1-yl) benzofuran-2-carboxylate]			45.87 µg/mL	> 25 µg/mL	> 50 µg/mL	22.55%
CCOC(=O)c1cc2cc(N3CCN(C(=O)CCCNS(=O)(=O)c4ccc([N+](=O)[O-])cc4[N+](=O)[O-])CC3)ccc2o1 [Compound 4d, ethyl 5-(4-(4-(2,4-dinitrophenylsulfonamido)butanoyl)piperazin-1-yl) benzofuran-2-carboxylate]			33.50 µg/mL	1.56 ± 0.36 µg/mL (≈ 2.65 µM)	> 50 µg/mL	35.95%
CN1CCN(C(=O)c2cc3cc(N4CCN(S(=O)(=O)c5ccc([N+](=O)[O-])cc5[N+](=O)[O-])CC4)ccc3o2)CC1 [Compound 4p, (5-(4-((2,4-dinitrophenyl)sulphonyl)piperazin-1-yl)benzofuran-2-yl)(4-methylpiperazin-1-yl) methanone]			48.66 µg/mL	6.25 µg/mL (≈ 11.2 µM)	> 50 µg/mL	30.18%
CCOC(=O)c1cc2cc(N3CCN(S(=O)(=O)c4ccc([N+](=O)[O-])cc4[N+](=O)[O-])CC3)ccc2o1 [Compound 4a, ethyl 5-(4-(2,4-dintrobenzenesulfonyl)piperazin-1-yl)benzofuran-2-carboxylate]	0.78 µg/mL		15.25 µg/mL	0.78 ± 0.36 µg/mL (≈ 1.55 µM)	> 50 µg/mL	20.80%
CCOC(=O)c1cc2cc(N3CCN(C(=O)C4CCN(S(=O)(=O)c5ccc([N+](=O)[O-])cc5[N+](=O)[O-])C4)CC3)ccc2o1 (stereo not drawn) [Compound 4i, ethyl 5-(4-(1-((2,4-dinitrophenyl)sulphonyl)pyrrolidine-3-carbonyl)piperazin-1-yl)benzofuran-2-carboxylate]			52.44 µg/mL	6.25 µg/mL (≈ 10.4 µM)	> 50 µg/mL	19.38%
NC(=O)c1cc2cc(N3CCN(S(=O)(=O)c4ccc([N+](=O)[O-])cc4[N+](=O)[O-])CC3)ccc2o1 [Compound 4m, 5-(4-((2,4-dinitrophenyl)sulphonyl)piperazin-1-yl)benzofuran-2-carboxamide]			45.44 µg/mL	25 µg/mL (≈ 52.6 µM)	> 50 µg/mL	23.65%
CO[C@H]1/C=C/O[C@@]2(C)Oc3c(C)c(O)c4c(O)c(c(/C=N/N5CCN(C)CC5)c(O)c4c3C2=O)NC(=O)/C(C)=C\C=C\[C@H](C)[C@H](O)[C@@H](C)[C@@H](O)[C@@H](C)[C@H](OC(C)=O)[C@@H]1C [Rifampicin, reference compound]	0.1 µg/mL	0.1 ± 0.04 µg/mL (≈ 0.122 µM)				
CCOC(=O)c1cc2cc(N3CCN(C(=O)C(C)(C)NS(=O)(=O)c4ccc([N+](=O)[O-])cc4[N+](=O)[O-])CC3)ccc2o1 [Compound 4j, ethyl 5-(4-(2-(2,4-dinitrophenylsulfonamido)-2-methylpropanoyl)piperazin-1-yl)benzofuran-2-carboxylate]	0.78 µg/mL		20.43 µg/mL	0.78 ± 0.48 µg/mL (≈ 1.32 µM)	> 50 µg/mL	39.28%
CCOC(=O)c1cc2cc(N3CCN(C(=O)CNS(=O)(=O)c4ccc([N+](=O)[O-])cc4[N+](=O)[O-])CC3)ccc2o1 [Compound 4b, ethyl 5-(4-(2-(2,4-dinitrophenylsulfonamido)acetyl)piperazin-1-yl)benzofuran-2-carboxylate]			50.33 µg/mL	3.12 ± 1.47 µg/mL (≈ 5.56 µM)	> 50 µg/mL	37.41%
CCOC(=O)c1cc2cc(N3CCN(C(=O)C4CCCN(S(=O)(=O)c5ccc([N+](=O)[O-])cc5[N+](=O)[O-])C4)CC3)ccc2o1 (stereo not drawn) [Compound 4f, ethyl 5-(4-(1-((2,4-dinitrophenyl)sulphonyl)piperidine-3-carbonyl)piperazin-1-yl)benzofuran-2-carboxylate]			39.01 µg/mL	1.56 ± 0.73 µg/mL (≈ 2.53 µM)	> 50 µg/mL	22.75%
CCOC(=O)c1cc2cc(N3CCN(C(=O)[C@@H]4CCCN4S(=O)(=O)c4ccc([N+](=O)[O-])cc4[N+](=O)[O-])CC3)ccc2o1 [Compound 4g, (S)-ethyl 5-(4-(1-((2,4-dinitrophenyl)sulphonyl)pyrrolidine-2-carbonyl)piperazin-1-yl)benzofuran-2-carboxylate]			55.25 µg/mL	6.25 µg/mL (≈ 10.4 µM)	> 50 µg/mL	29.64%
CCOC(=O)c1cc2cc(N3CCN(C(=O)[C@H]4CCCN4S(=O)(=O)c4ccc([N+](=O)[O-])cc4[N+](=O)[O-])CC3)ccc2o1 [Compound 4h, (R)-ethyl 5-(4-(1-((2,4-dinitrophenyl)sulphonyl)pyrrolidine-2-carbonyl)piperazin-1-yl)benzofuran-2-carboxylate]			49.75 µg/mL	> 25 µg/mL	> 50 µg/mL	33.08%
CCOC(=O)c1cc2cc(N3CCN(C(=O)C4CCN(S(=O)(=O)c5ccc([N+](=O)[O-])cc5[N+](=O)[O-])CC4)CC3)ccc2o1 [Compound 4e, ethyl 5-(4-(1-((2,4-dinitrophenyl)sulphonyl)piperidine-4-carbonyl)piperazin-1-yl)benzofuran-2-carboxylate]			45.21 µg/mL	1.56 ± 0.97 µg/mL (≈ 2.53 µM)	> 50 µg/mL	18.95%
